Results from PMC4764975, “Probing the enzyme kinetics, allosteric modulation and activation of α1- and α2-subunit-containing AMP-activated protein kinase (AMPK) heterotrimeric complexes by pharmacological and physiological activators” (Biochemical Journal, 2016).
Entries after “also recorded” stand apart in the source; their conditions may differ. Like-named read-outs stand apart in the source and are kept apart here.

Assays:
BAP-tagged AMPK α2β2γ1 = molecular target: T1, BAP-tagged AMPK α2β2γ1 (Homo sapiens, UniProt O43741+P54619+P54646); test: SPR direct binding (Biacore); conditions: in the presence of 150 μM AMP, 37-1000 nM
T1 construct: Recombinant full-length AMPK heterotrimeric complexes α1β1γ1, α1β2γ1, α1β2γ3, α2β1γ1, α2β2γ1 and α2β2γ3 were cloned into a tricistronic vector system; 6X-His (N); made in house; host or cells: E. coli BL21-CodonPlus (DE3)-RIPL, co-expressed with BirA
Description: (§1) SPR experiments were performed on a Biacore™ 3000 instrument (GE Healthcare). BAP-tagged AMPK isoform (α1β1γ1, α1β2γ1, α2β2γ1, α2β2γ3) was captured on to a streptavidin sensor chip to levels ranging from 4000 to 6000 RU. […] Binding responses were processed using Scrubber 2 (BioLogic Software Pty Ltd) to zero, x-align, double reference and corrected for excluded volume effect of DMSO in the data. […] The compound was injected at a flow rate of 50 μl/min with total contact time of 120 s and dissociation time of 600 s. Rate parameters (kon, koff) and corresponding dissociation constant(KD=koff/kon) were determined by globally fitting all of the experimental data to a simple 1:1 interaction model using Biaeval software (GE Healthcare). To determine nt binding, 10 concentrations with 2-fold dilutions were tested in duplicate. The highest concentration tested was 2 mM. The compound was injected at a flow rate of 50 μl/min with total contact time of 120 s and dissociation time of 300 s. Equilibrium dissociation constant (KD) was determined using a steady-state affinity algorithm available within Scrubber.
(§2) We then compared the binding of nts (AMP, ADP and ATP) to α1β1γ1, α1β2γ1, α2β2γ1 and α2β2γ3 isoforms in the presence and absence of Mg^2+ and Stau, using SPR technique. […]

BAP-tagged AMPK α1β1γ1 [1] = molecular target: T2, BAP-tagged AMPK α1β1γ1 (Homo sapiens, UniProt P54619+Q13131+Q9Y478); test: SPR direct binding (Biacore); conditions: in the presence of 150 μM AMP, n=1, read-out: KD
T2 construct: Recombinant full-length AMPK heterotrimeric complexes α1β1γ1, α1β2γ1, α1β2γ3, α2β1γ1, α2β2γ1 and α2β2γ3 were cloned; 6X-His (N); AviTag (BAP); made in house; host or cells: E. coli (co-expressed with BirA)
Description: as §1, §2

AMPK α2β2γ3 [2] = molecular target: T3, AMPK α2β2γ3 (Homo sapiens, UniProt O43741+P54646+Q9UGI9); test: TR-FRET allosteric activation assay; type: biochemical; conditions: 50 nM Cy5-SAMS, ATP at Km
T3 construct: Recombinant full-length AMPK heterotrimeric complexes α1β1γ1, α1β2γ1, α1β2γ3, α2β1γ1, α2β2γ1 and α2β2γ3 were cloned; 6X-His (N); made in house; host or cells: E. coli BL21-CodonPlus (DE3)-RIPL
From the text: (§3) After excitation at 320 nm, the energy from the Europium donor is transferred to the Cy5 acceptor which in turn generates light at 665 nm. The intensity of the signal is proportional to the level of AMPK-mediated Cy5 substrate phosphorylation. […] Non-specific emission obtained from samples containing all the reagents except enzyme was used to normalize the values.
(§4) The basal kinase activity of the pAMPK isoforms in the absence of activator was normalized to zero (baseline) and the changes in the enzyme activity in the presence of activator at different concentrations was compared with the basal activity.

AMPK α1β2γ3 [3] = molecular target: T4, AMPK α1β2γ3 (Homo sapiens, UniProt O43741+Q13131+Q9UGI9); test: TR-FRET allosteric activation assay; type: biochemical; conditions: 50 nM Cy5-SAMS, ATP at Km
T4 construct: Recombinant full-length AMPK heterotrimeric complexes α1β1γ1, α1β2γ1, α1β2γ3, α2β1γ1, α2β2γ1 and α2β2γ3 were cloned; 6X-His (N); made in house; host or cells: E. coli BL21-CodonPlus (DE3)-RIPL
From the text: as §3, §4

AMPK α1β1γ1 [4] = molecular target: T5, AMPK α1β1γ1 (Homo sapiens, UniProt P54619+Q13131+Q9Y478); test: TR-FRET allosteric activation assay; type: biochemical; conditions: 50 nM Cy5-SAMS, ATP at Km
T5 construct: Recombinant full-length AMPK heterotrimeric complexes α1β1γ1, α1β2γ1, α1β2γ3, α2β1γ1, α2β2γ1 and α2β2γ3 were cloned; 6X-His (N); made in house; host or cells: E. coli BL21-CodonPlus (DE3)-RIPL
From the text: as §3, §4

AMPK α2β2γ1 [5] = molecular target: T6, AMPK α2β2γ1 (Homo sapiens, UniProt O43741+P54619+P54646); test: TR-FRET allosteric activation assay; type: biochemical; conditions: 50 nM Cy5-SAMS, ATP at Km
T6 construct: Recombinant full-length AMPK heterotrimeric complexes α1β1γ1, α1β2γ1, α1β2γ3, α2β1γ1, α2β2γ1 and α2β2γ3 were cloned; 6X-His (N); made in house; host or cells: E. coli BL21-CodonPlus (DE3)-RIPL
From the text: as §3, §4

AMPK α1β2γ1 [6] = molecular target: T7, AMPK α1β2γ1 (Homo sapiens, UniProt O43741+P54619+Q13131); test: TR-FRET allosteric activation assay; type: biochemical; conditions: 50 nM Cy5-SAMS, ATP at Km
T7 construct: Recombinant full-length AMPK heterotrimeric complexes α1β1γ1, α1β2γ1, α1β2γ3, α2β1γ1, α2β2γ1 and α2β2γ3 were cloned; 6X-His (N); made in house; host or cells: E. coli BL21-CodonPlus (DE3)-RIPL
From the text: as §3, §4

BAP-tagged AMPK α1β1γ1 [7] = molecular target: T2, BAP-tagged AMPK α1β1γ1; set-up: method as in PMID 25066137; conditions: reported previously; cited from earlier work
AMPK α2β2γ3 [8] = molecular target: T3, AMPK α2β2γ3; test: Protection of pAMPK α-pThr172/174 from PP2Aα (slot-blot ELISA); type: biochemical
Description: (§5) Test compound was previously diluted in half-log increments, starting at 40 μM in 100% DMSO, diluted 10-fold in assay buffer and dispensed into a microtitre plate. After 15 min at room temperature, phosphatase was added to the mixture and the reaction was allowed to proceed for 60 min at room temperature. Reactions were quenched by the addition of okadaic acid, and transferred to PVDF membrane using the slot-blot apparatus and subjected to immunoblotting. Phosphatase sensitivity was similarly assessed by subjecting pAMPK to a phosphatase (PP2Aα) treatment using various concentrations and incubation times. The concentration of phosphatase was expressed as nmol of PP2Aα per minute per nmol of pAMPK in the reaction.
(§6) The membrane was blocked with Western Blot Blocking Buffer Reagent (Li-Cor) for 3–4 h at room temperature. […] Following the wash step, goat anti-rabbit 800CW (Rockland) at 1:10000 dilution was used as a secondary antibody. Blots were visualized using the Li-Cor Odyssey infrared imaging system and signal quantification was performed using the Odyssey software.
(§7) Data are mean (n=2), and curves were generated using best-fit values.

AMPK α2β1γ1 = molecular target: T8, AMPK α2β1γ1 (Homo sapiens, UniProt P54619+P54646+Q9Y478); test: as above; type: biochemical
T8 construct: Recombinant full-length AMPK heterotrimeric complexes α1β1γ1, α1β2γ1, α1β2γ3, α2β1γ1, α2β2γ1 and α2β2γ3 were cloned; 6X-His (N); made in house; host or cells: E. coli BL21-CodonPlus (DE3)-RIPL
Description: as §5, §6, §7

AMPK α1β2γ3 [9] = molecular target: T4, AMPK α1β2γ3; test: as above; type: biochemical
Description: as §5, §6, §7

AMPK α1β1γ1 [10] = molecular target: T5, AMPK α1β1γ1; test: as above; type: biochemical
Description: as §5, §6, §7

AMPK α2β2γ1 [11] = molecular target: T6, AMPK α2β2γ1; test: as above; type: biochemical
Description: as §5, §6, §7

AMPK α1β2γ1 [12] = molecular target: T7, AMPK α1β2γ1; test: as above; type: biochemical
Description: as §5, §6, §7

[13] = activator concentration for half-maximal protection of pThr172/174, 10 nM AMPK, 40 nM PP2Aα, read-out: Protection pEC50 (converted)
[14] = extent of protection (Figure 7)

T6 sequence (P54646 whole entry): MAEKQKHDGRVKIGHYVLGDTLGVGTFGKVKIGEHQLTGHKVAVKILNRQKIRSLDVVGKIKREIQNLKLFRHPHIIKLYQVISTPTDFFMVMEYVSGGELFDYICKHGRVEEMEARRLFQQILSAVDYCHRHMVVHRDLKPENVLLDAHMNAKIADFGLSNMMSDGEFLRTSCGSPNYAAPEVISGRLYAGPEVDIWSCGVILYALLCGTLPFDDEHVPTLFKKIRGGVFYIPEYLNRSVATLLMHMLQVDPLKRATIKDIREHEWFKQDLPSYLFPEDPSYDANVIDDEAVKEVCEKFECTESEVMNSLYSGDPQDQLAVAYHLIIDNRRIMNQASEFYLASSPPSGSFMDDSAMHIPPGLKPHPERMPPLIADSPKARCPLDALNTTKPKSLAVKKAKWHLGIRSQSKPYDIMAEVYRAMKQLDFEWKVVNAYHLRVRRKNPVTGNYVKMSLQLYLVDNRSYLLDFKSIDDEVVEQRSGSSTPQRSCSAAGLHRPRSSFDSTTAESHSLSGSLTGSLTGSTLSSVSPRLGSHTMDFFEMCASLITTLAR
T6 sequence (O43741 whole entry): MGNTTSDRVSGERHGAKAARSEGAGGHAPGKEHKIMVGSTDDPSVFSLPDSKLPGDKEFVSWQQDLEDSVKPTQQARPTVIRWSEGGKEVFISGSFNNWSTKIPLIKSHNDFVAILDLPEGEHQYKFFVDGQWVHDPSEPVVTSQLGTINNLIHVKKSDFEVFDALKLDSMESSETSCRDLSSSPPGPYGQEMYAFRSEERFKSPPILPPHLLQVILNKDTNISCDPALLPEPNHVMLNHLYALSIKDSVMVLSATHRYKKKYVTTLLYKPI
T6 sequence (P54619 whole entry): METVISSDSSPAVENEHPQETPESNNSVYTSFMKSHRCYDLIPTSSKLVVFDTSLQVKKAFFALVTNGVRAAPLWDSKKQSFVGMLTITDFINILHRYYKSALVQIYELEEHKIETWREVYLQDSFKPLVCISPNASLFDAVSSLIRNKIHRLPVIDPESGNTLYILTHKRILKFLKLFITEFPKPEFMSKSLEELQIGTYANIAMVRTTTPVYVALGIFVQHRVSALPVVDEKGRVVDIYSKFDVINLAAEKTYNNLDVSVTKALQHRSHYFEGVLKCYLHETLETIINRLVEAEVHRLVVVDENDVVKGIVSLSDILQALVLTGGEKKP
T3 sequence (P54646 whole entry): as the sequence (P54646 whole entry) above
T3 sequence (O43741 whole entry): as the sequence (O43741 whole entry) above
T3 sequence (Q9UGI9 whole entry): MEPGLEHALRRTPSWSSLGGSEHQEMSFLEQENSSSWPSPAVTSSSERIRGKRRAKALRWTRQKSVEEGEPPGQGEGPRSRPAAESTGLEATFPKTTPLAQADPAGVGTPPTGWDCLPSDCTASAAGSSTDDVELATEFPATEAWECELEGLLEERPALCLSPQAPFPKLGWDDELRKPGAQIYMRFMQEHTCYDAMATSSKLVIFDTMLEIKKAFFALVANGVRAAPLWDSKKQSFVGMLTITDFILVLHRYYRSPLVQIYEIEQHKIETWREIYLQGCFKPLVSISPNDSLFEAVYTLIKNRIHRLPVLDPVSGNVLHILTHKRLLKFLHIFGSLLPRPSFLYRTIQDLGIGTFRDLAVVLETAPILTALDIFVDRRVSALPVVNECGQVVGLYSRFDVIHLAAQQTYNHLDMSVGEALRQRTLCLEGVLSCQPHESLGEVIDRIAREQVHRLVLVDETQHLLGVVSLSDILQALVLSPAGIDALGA
T7 sequence (Q13131 whole entry): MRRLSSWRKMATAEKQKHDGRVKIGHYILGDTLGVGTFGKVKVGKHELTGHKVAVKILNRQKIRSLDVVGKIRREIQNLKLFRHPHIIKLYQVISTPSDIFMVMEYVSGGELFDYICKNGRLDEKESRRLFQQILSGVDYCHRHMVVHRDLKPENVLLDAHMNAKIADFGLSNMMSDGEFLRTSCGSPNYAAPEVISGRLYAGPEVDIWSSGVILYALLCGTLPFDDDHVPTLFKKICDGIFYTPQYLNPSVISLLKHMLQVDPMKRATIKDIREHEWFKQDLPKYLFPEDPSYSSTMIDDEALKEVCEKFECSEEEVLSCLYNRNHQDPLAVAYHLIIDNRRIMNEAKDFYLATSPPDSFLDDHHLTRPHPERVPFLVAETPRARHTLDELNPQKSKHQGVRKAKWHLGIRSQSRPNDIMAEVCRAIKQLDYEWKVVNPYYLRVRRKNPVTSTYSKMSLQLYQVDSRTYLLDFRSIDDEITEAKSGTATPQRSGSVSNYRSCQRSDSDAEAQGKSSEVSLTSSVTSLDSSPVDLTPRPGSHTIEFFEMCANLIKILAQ
T7 sequence (O43741 whole entry): as the sequence (O43741 whole entry) above
T7 sequence (P54619 whole entry): as the sequence (P54619 whole entry) above
T4 sequence (Q13131 whole entry): as the sequence (Q13131 whole entry) above
T4 sequence (O43741 whole entry): as the sequence (O43741 whole entry) above
T4 sequence (Q9UGI9 whole entry): as the sequence (Q9UGI9 whole entry) above
T5 sequence (Q13131 whole entry): as the sequence (Q13131 whole entry) above
T5 sequence (Q9Y478 whole entry): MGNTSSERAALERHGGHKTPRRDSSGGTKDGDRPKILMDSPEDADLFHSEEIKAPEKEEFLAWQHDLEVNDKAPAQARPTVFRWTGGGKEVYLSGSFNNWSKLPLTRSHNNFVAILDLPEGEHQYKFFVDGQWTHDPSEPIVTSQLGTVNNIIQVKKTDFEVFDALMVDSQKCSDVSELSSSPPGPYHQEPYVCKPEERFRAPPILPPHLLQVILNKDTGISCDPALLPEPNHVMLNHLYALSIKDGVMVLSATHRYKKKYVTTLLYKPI
T5 sequence (P54619 whole entry): as the sequence (P54619 whole entry) above
T1 sequence (P54646 whole entry): as the sequence (P54646 whole entry) above
T1 sequence (O43741 whole entry): as the sequence (O43741 whole entry) above
T1 sequence (P54619 whole entry): as the sequence (P54619 whole entry) above
T8 sequence (P54646 whole entry): as the sequence (P54646 whole entry) above
T8 sequence (Q9Y478 whole entry): as the sequence (Q9Y478 whole entry) above
T8 sequence (P54619 whole entry): as the sequence (P54619 whole entry) above
T2 sequence (Q13131 whole entry): as the sequence (Q13131 whole entry) above
T2 sequence (Q9Y478 whole entry): as the sequence (Q9Y478 whole entry) above
T2 sequence (P54619 whole entry): as the sequence (P54619 whole entry) above

## N#Cc1c(O)c2c(-c3ccc(-c4ccccc4O)cc3)csc2[nH]c1=O [A769662]
BAP-tagged AMPK α2β2γ1
  SPR binding: negligible; also recorded: could not detect any binding
BAP-tagged AMPK α1β1γ1 [1]
  Kd: 0.03 µM
AMPK α2β2γ3 [2]
  AC50: > 40 µM
AMPK α1β2γ3 [3]
  AC50: > 40 µM
AMPK α1β1γ1 [4]
  AC50: 0.0722 µM
AMPK α2β2γ1 [5]
  AC50: > 40 µM
AMPK α1β2γ1 [6]
  AC50: > 40 µM
BAP-tagged AMPK α1β1γ1 [7]
  Kd: 0.048 µM
AMPK α2β2γ3 [8]; [13]
  EC50: 5.6 µM
AMPK α2β2γ3 [8]; [14]
  protection of α-pThr172/174 from PP2Aα: > 70%
AMPK α2β1γ1
  enhanced protection of pThr172 compared with AMP: 3 fold
AMPK α2β1γ1; [14]
  protection of α-pThr172/174 from PP2Aα: > 70%
AMPK α1β2γ3 [9]; [13]
  EC50: > 40 µM
AMPK α1β2γ3 [9]; [14]
  protection of α-pThr172/174 from PP2Aα: > 70%
AMPK α1β1γ1 [10]
  enhanced protection of pThr172 compared with AMP: 10 fold
AMPK α1β1γ1 [10]; [13]
  EC50: 0.046 µM
AMPK α1β1γ1 [10]; [14]
  protection of α-pThr172/174 from PP2Aα: > 70%
AMPK α2β2γ1 [11]; [13]
  EC50: 2.32 µM
AMPK α2β2γ1 [11]; [14]
  protection of α-pThr172/174 from PP2Aα: > 70%
AMPK α1β2γ1 [12]; [13]
  EC50: 4.7 µM
AMPK α1β2γ1 [12]; [14]
  protection of α-pThr172/174 from PP2Aα: > 70%
